In PubChem BioAssay (NCI):
Several values for one entry are separate records, joined by “and”; a condition that tells them apart may be missing. Equal values may be shown once.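 These data come from cells grown in 96-well plates and exposed to compound for 48 hours at five concentrations. Here, GI50 denotes the concentration required for 50% inhibition of growth. TGI denotes the concentration required for complete inhibition of growth.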

Key:
Experiment in all cases: NCI-60 cell line screen, 48 h
[1] = test system: 786-0 renal
[2] = test system: ACHN renal
[3] = test system: CAKI-1 renal
[4] = test system: CCRF-CEM leukemia
[5] = test system: COLO 205 colon
[6] = test system: DU-145 prostate
[7] = test system: HCT-116 colon
[8] = test system: HCT-15 colon
[9] = test system: HL-60(TB) leukemia
[10] = test system: HOP-62 NSCLC
[11] = test system: HT29 colon
[12] = test system: IGROV1 ovarian
[13] = test system: K-562 leukemia
[14] = test system: KM12 colon
[15] = test system: LOX IMVI melanoma
[16] = test system: M14 melanoma
[17] = test system: MALME-3M melanoma
[18] = test system: MCF7 breast
[19] = test system: MDA-MB-231 breast
[20] = test system: MDA-MB-435
[21] = test system: MOLT-4 leukemia
[22] = test system: NCI-H226 lung
[23] = test system: NCI-H23 lung
[24] = test system: NCI-H460 lung
[25] = test system: NCI-H522 lung
[26] = test system: NCI/ADR-RES ovarian
[27] = test system: OVCAR-3 ovarian
[28] = test system: OVCAR-4 ovarian
[29] = test system: OVCAR-5 ovarian
[30] = test system: OVCAR-8 ovarian
[31] = test system: PC-3 prostate
[32] = test system: RPMI-8226 leukemia
[33] = test system: SF-268 CNS
[34] = test system: SF-295 CNS
[35] = test system: SF-539 CNS
[36] = test system: SK-MEL-2 melanoma
[37] = test system: SK-MEL-28 melanoma
[38] = test system: SK-MEL-5 melanoma
[39] = test system: SK-OV-3 ovarian
[40] = test system: SN12C renal
[41] = test system: SNB-19 CNS
[42] = test system: SNB-75 CNS
[43] = test system: SR leukemia
[44] = test system: SW-620 colon
[45] = test system: T-47D breast
[46] = test system: TK-10 renal
[47] = test system: U251 CNS
[48] = test system: UACC-257 melanoma
[49] = test system: UACC-62 melanoma
[50] = test system: UO-31 renal

With `COc1c(OCCCN2CCOCC2)ccc2c3n(c(=NC(=O)c4cnc(N)nc4)nc12)CCN3` the GI50 [1] was 91.3 nM [middle of 4 runs], the GI50 [2] was 72.3 nM [middle of 4 runs] and the TGI [2] was over 100000 nM. The TGI [3] was 3380 nM and > 10000 nM and 2400 nM, the GI50 [4] was 48.9 nM [middle of 4 runs] and the TGI [4] was over 100000 nM. The GI50 [5] was 38.1 nM [middle of 4 runs], the TGI [6] was over 100000 nM and the GI50 [7] was 109 nM [middle of 4 runs]. The TGI [7] was over 100000 nM, the GI50 [8] was 59.9 nM [middle of 4 runs] and the TGI [8] was over 100000 nM. For the same compound, the TGI [9] was over 75000 nM, the GI50 [10] was 132 nM [middle of 4 runs] and the TGI [10] was over 100000 nM. For the same compound, the GI50 [11] was 17.7 nM and 24.9 nM and 10.9 nM, the TGI [11] was over 100000 nM and the TGI [12] was 40.3 nM [middle of 4 runs]. For the same compound, the GI50 [13] was 1.68 µM [middle of 4 runs], the TGI [13] was over 100000 nM and the GI50 [14] was 368 nM [middle of 4 runs]. The GI50 [15] was 64.9 nM [middle of 4 runs], the GI50 [16] was 118 nM [middle of 4 runs] and the TGI [17] was 448 nM [middle of 4 runs]. For the same compound, the TGI [18] was over 100000 nM, the GI50 [19] was 339 nM [middle of 4 runs] and the GI50 [20] was 142 nM [middle of 4 runs]. The GI50 [21] was 36.3 nM and 40.9 nM and 28.3 nM, the GI50 [22] was 144 nM [middle of 4 runs] and the TGI [22] was over 100000 nM. The GI50 [23] was 398 nM [middle of 4 runs], the TGI [23] was over 100000 nM and the GI50 [24] was 39.7 nM [middle of 4 runs]. The TGI [24] was over 100000 nM, the GI50 [25] was 138 nM [middle of 4 runs] and the GI50 [26] was 428 nM [middle of 4 runs]. The TGI [26] was over 100000 nM, the GI50 [27] was 36.2 nM and 28.3 nM and 126 nM and the TGI [27] was 890 nM and 976 nM and 4920 nM. The GI50 [28] was 469 nM and 391 nM and 438 nM, the TGI [28] was > 75000 nM and 10800 nM and 7650 nM and the GI50 [29] was 31.2 nM [middle of 4 runs]. The TGI [29] was over 100000 nM, the GI50 [30] was 228 nM [middle of 4 runs] and the TGI [30] was over 100000 nM. The TGI [31] was over 100000 nM, the GI50 [32] was 220 nM and 174 nM and 323 nM and the TGI [32] was 2050 nM and > 10000 nM. For the same compound, the TGI [33] was over 100000 nM, the GI50 [34] was 74.8 nM [middle of 4 runs] and the TGI [34] was 814 nM [middle of 4 runs]. For the same compound, the TGI [35] was 664 nM [middle of 4 runs], the GI50 [36] was 197 nM [middle of 4 runs] and the TGI [37] was 7660 nM and 810 nM and 1640 nM. For the same compound, the GI50 [38] was 228 nM [middle of 4 runs], the TGI [38] was 1.51 µM [middle of 4 runs] and the TGI [39] was 67.3 nM and 446 nM and 74.5 nM. The GI50 [40] was 88.5 nM [middle of 4 runs], the TGI [40] was over 100000 nM and the GI50 [41] was 297 nM [middle of 4 runs]. The TGI [41] was over 100000 nM, the GI50 [42] was 7.5 nM and < 12.3 nM and < 10 nM and the TGI [42] was 50.4 nM and 33 nM. For the same compound, the GI50 [43] was 315 nM [middle of 4 runs], the GI50 [44] was 216 nM [middle of 4 runs] and the TGI [44] was over 100000 nM. The GI50 [45] was 7.5 nM and 2.58 nM and < 10 nM, the TGI [45] was 39.4 nM and 40.8 nM and 30.2 nM and the TGI [46] was 198 nM and 782 nM. The TGI [47] was over 100000 nM, the GI50 [48] was 77.4 nM [middle of 4 runs] and the GI50 [49] was 48.3 nM [middle of 4 runs]. The TGI [49] was 464 nM [middle of 4 runs] and the GI50 [50] was 22.4 nM and 23.8 nM and 24.5 nM.
